Data on 22 compounds can be found in patent publication US9040516B2, “Uracil derivative and use thereof for medical purposes” (SUMITOMO DAINIPPON PHARMA CO., LTD., priority 2011, dated 2015).

The first assay deals with T1, human neutrophil elastase (Homo sapiens, UniProt P08246).
T1 construct: purchased Elastin Products Company
T1 sequence (P08246 30-267): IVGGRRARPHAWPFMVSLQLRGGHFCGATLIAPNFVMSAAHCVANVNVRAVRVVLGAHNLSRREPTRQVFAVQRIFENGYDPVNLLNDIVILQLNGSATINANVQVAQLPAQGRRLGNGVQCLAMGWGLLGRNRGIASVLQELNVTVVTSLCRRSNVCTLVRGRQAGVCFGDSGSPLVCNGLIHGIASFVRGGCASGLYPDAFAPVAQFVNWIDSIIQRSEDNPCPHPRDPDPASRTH
In words: Inhibitory action against human neutrophil elastase (Test Example 1; fluorogenic substrate MeOSuc-AAPV-AMC, buffer with 2M NaCl, 0.002% Brij-35). The following applies: 37° C., read-out: IC50 value (compound concentration required for 50% inhibition of human neutrophil elastase). The class given is biochemical. As to the method: Assay buffer (0.4 unit/ml HNE (human neutrophil elastase, available from Elastin Products Company), 200 mM HEPES [N-(2-hydroxyethyl)piperazine-N′-(2-ethanesulfonic acid)], pH 7.5, 2M NaCl, 0.002% Brij-35) 100 μl, water for injection 40 μl and DMSO (dimethyl sulfoxide) solution of the present compound 20 μl were mixed in a 96 well plate and the mixed solutions were pre-incubated at 37° C. for five minutes. After pre-incubation, MeOSuc-AAPV-AMC (methoxysuccinyl-alanyl-alanyl-prolyl-valyl-aminomethyl cumaride (available from Sigma Aldrich Co.) solution as fluorogenic substrate (which was dissolved in 10% DMSO solution so as to adjust to 0.5 mM) 40 μl was added to the above-prepared mixed solution so as to initiate the reaction, and the mixture was incubated at 37° C. for five minutes. The fluorescence intensity of AMC was measured at an excitation wavelength of 380 nm and a fluorescence wavelength of 460 nm and the inhibition ratio was determined.
`Cc1c(-c2ccnn2-c2ccc(C#N)cc2)c(=O)n(C)c(=O)n1-c1cccc(C#N)c1` [Example 10, 3-[5-[1-(4-cyanophenyl)-1H-pyrazol-5-yl]-3,6-dimethyl-2,4-dioxo-3,4-dihydropyrimidin-1(2H)-yl]benzonitrile]: the IC50 was determined as 648 nM. Still for that read-out and setting: the figure for `Cc1c(-c2ccnn2-c2ccc(C#N)cc2)c(=O)n(C)c(=O)n1-c1cccc(F)c1` [Example 11, 4-[5-[1-(3-fluorophenyl)-3,6-dimethyl-2,4-dioxo-1,2,3,4-tetrahydropyrimidin-5-yl]-1H-pyrazol-1-yl]benzonitrile] is 1360 nM; for `COc1cccc(-n2c(C)c(-c3ccnn3-c3ccc(C#N)cc3)c(=O)n(C)c2=O)c1` [Example 12, 4-[5-[1-(3-methoxyphenyl)-3,6-dimethyl-2,4-dioxo-1,2,3,4-tetrahydropyrimidin-5-yl]-1H-pyrazol-1-yl]benzonitrile] it is 1490 nM.

For the compound `Cc1c(-c2ccnn2-c2ccc(C#N)cc2)c(=O)n(C)c(=O)n1-c1ccc(F)c(C(F)(F)F)c1` [Example 13, 4-[5-[1-(4-fluoro-3-trifluorophenyl)-3,6-dimethyl-2,4-dioxo-1,2,3,4-tetrahydropyrimidin-5-yl]-1H-pyrazol-1-yl]benzonitrile], the IC50 turned out to be 86 nM. On the same count and under the same terms, the value for `Cc1c(-c2ccnn2-c2ccc(C#N)cc2)c(=O)n(C)c(=O)n1-c1ccccc1` [Example 14, 4-[5-(1-phenyl-3,6-dimethyl-2,4-dioxo-1,2,3,4-tetrahydropyrimidin-5-yl)-1H-pyrazol-1-yl]benzonitrile] was 12600 nM. Same read-out and setting: the figure for `Cc1c(-c2ccnn2-c2ccc(C#N)cc2)c(=O)n(C)c(=O)n1-c1cccc([N+](=O)[O-])c1` [Example 18, 4-[5-[1-(3-nitrophenyl)-3,6-dimethyl-2,4-dioxo-1,2,3,4-tetrahydropyrimidin-5-yl]-1H-pyrazol-1-yl]benzonitrile] is 47 nM; for `Cc1c(-c2ccnn2-c2ccc(F)cc2)c(=O)n(C)c(=O)n1-c1cccc(C(F)(F)F)c1` [Example 22, 5-[1-(4-fluorophenyl)-1H-pyrazol-5-yl]-3,6-dimethyl-1-(3-trifluoromethylphenyl)pyrimidin-2,4(1H,3H)-dione] it is 793 nM; for `Cc1c(-c2ccnn2-c2ccc(C#N)nc2)c(=O)n(C)c(=O)n1-c1cccc(C(F)(F)F)c1` [Example 23, 5-[5-[3,6-dimethyl-2,4-dioxo-1-(3-trifluoromethylphenyl)-1,2,3,4-tetrahydropyrimidin-5-yl]-1H-pyrazol-1-yl]picolinonitrile] it is 651 nM. For the compound `CN(C)C=Nc1c(-c2ccnn2-c2ccc(C#N)cc2)c(=O)n(C)c(=O)n1-c1cccc(C(F)(F)F)c1` [Example 28, N′-[5-[1-(4-cyanophenyl)-1H-pyrazol-5-yl]-1-methyl-2,6-dioxo-3-(3-trifluoromethylphenyl)-1,2,3,6-tetrahydropyrimidin-4-yl]-N,N-dimethylformimidamide], the IC50 was 2240 nM. Still for that read-out and setting: the figure for `CCCn1c(=O)c(-c2ccnn2-c2ccc(C#N)cc2)c(N=CN(C)C)n(-c2cccc([N+](=O)[O-])c2)c1=O` [Example 29, N′-[5-[1-(4-cyanophenyl)-1H-pyrazol-5-yl]-3-(3-nitrophenyl)-2,6-dioxo-1-propyl-1,2,3,6-tetrahydropyrimidin-4-yl]-N,N-dimethylformimidamide] is 2140 nM; for `Cc1c(-c2ccnn2-c2ccc(C#N)cc2)c(=O)n(CCCCCNC(=O)OC(C)(C)C)c(=O)n1-c1cccc(C(F)(F)F)c1` [Example 30, Tert-butyl 5-[5-[1-(4-cyanophenyl)-1H-pyrazol-5-yl]-4-methyl-2,6-dioxo-3-(3-trifluoromethyl)-2,3-dihydropyrimidine-1 (6H)-yl]pentylcarbamate] it is 64 nM. On the same count and under the same terms, the figure for `Cc1c(-c2ccnn2-c2ccc(C#N)cc2)c(=O)n(C)c(=O)n1-c1cccc(C(F)(F)F)c1` [Example 31, 4-[5-[3,6-dimethyl-2,4-dioxo-1-(3-trifluoromethylphenyl)-1,2,3,4-tetrahydropyrimidin-5-yl]-1H-pyrazol-1-yl]benzonitrile] is 19 nM; for `Cc1c(-c2ccnn2-c2ccc(C#N)cc2)c(=O)n(C)c(=O)n1-c1cccc(C(F)(F)F)n1` [Example 33, 4-[5-[3,6-dimethyl-2,4-dioxo-1-(6-trifluoromethylpyridine-2-yl)-1,2,3,4-tetrahydropyrimidin-5-yl]-1H-pyrazol-1-yl]benzonitrile] it is 74600 nM; for `Cc1c(-c2ccnn2-c2ccc(C#N)cc2)c(=O)n(C)c(=O)n1-c1cccc(Br)c1` [Example 34, 4-[5-[1-(3-bromophenyl)-3,6-dimethyl-2,4-dioxo-1,2,3,4-tetrahydropyrimidin-5-yl]-1H-pyrazol-1-yl]benzonitrile] it is 232 nM. `CSc1cc(C#N)ccc1-n1nccc1-c1c(C)n(-c2cccc(C(F)(F)F)c2)c(=O)n(C)c1=O` [Example 36, 4-[5-[3,6-dimethyl-2,4-dioxo-1-(3-trifluoromethylphenyl)-1,2,3,4-tetrahydropyrimidin-5-yl]-1H-pyrazol-1-yl]-3-(methylthio)benzonitrile]: the IC50 was found to be 111 nM. Still for that read-out and setting: the value for `Cc1c(-c2ccnn2-c2ccc(C#N)cc2)c(=O)n(C)c(=O)n1-c1cccc(C(C)(C)C)c1` [Example 38, 4-(5-(1-(3-tert-butylphenyl)-3,6-dimethyl-2,4-dioxo-1,2,3,4-tetrahydropyrimidin-5-yl)-1H-pyrazol-1-yl)benzonitrile] was 7910 nM; that for `Cc1c(-c2ccnn2-c2ccc(C#N)cc2)c(=O)n(C)c(=O)n1-c1cccc(S(C)(=O)=O)c1` [Example 39, 4-(5-(3,6-dimethyl-1-(3-(methylsulfonyl)phenyl)-2,4-dioxo-1,2,3,4-tetrahydropyrimidin-5-yl)-1H-pyrazol-1-yl)benzonitrile] was 19900 nM.

Staying with this assay, now noted: at 100 μM.
As for `Cc1c(-c2ccnn2-c2ccc(C#N)cc2)c(=O)n(C)c(=O)n1-c1ccccc1C(F)(F)F` [Example 15, 4-[5-[3,6-dimethyl-2,4-dioxo-1-(2-trifluoromethylphenyl)-1,2,3,4-tetrahydropyrimidin-5-yl]-1H-pyrazol-1-yl]benzonitrile], the “Inhibition ratio (%)” value is 76%.

Turning to `Cc1c(-c2ccnn2-c2ccc(C#N)cc2)c(=O)n(C)c(=O)n1-c1ccc(C(F)(F)F)cc1` [Example 16, 4-[5-[3,6-dimethyl-2,4-dioxo-1-(4-trifluoromethylphenyl)-1,2,3,4-tetrahydropyrimidin-5-yl]-1H-pyrazol-1-yl]benzonitrile], the “Inhibition ratio (%)” value worked out at 90%. The same measure, in the same setting: the value for `Cc1c(-c2ccnn2-c2ccccc2)c(=O)n(C)c(=O)n1-c1cccc(C(F)(F)F)c1` [Example 20, 3,6-dimethyl-5-(1-phenyl-1H-pyrazol-5-yl)-1-(3-trifluoromethylphenyl)pyrimidin-2,4(1H,3H)-dione] was 83%; that for `COC(=O)c1cccc(-n2c(C)c(-c3ccnn3-c3ccc(C#N)cc3)c(=O)n(C)c2=O)c1` [Example 32, 3-[5-[1-(4-cyanophenyl)-1H-pyrazol-5-yl]-3,6-dimethyl-2,4-dioxo-3,4-dihydropyrimidin-1(2H)-yl]benzoic acid methyl ester] was 50%; that for `Cc1c(-c2ccnn2-c2cccc(C#N)c2)c(=O)n(C)c(=O)n1-c1cccc(C(F)(F)F)c1` [Example 35, 3-[5-[3,6-dimethyl-2,4-dioxo-1-(3-trifluoromethylphenyl)-1,2,3,4-tetrahydropyrimidin-5-yl]-1H-pyrazol-1-yl]benzonitrile] was 49%.
